Source: US4752614A, “Pharmaceutical compositions of tellerium and selenium compounds for the induction of in vivo and in vitro production of cytokines” (Bar-Ilan University, priority 1987, dated 1988)
“And” between values parts separate entries of the source, which are not always exact repeats. Identical values can stand only once.

Tests used:
IL-2 [1] = assay: IL-2 secretion by mouse spleen cells in vitro, CTLD proliferation (Example 17); assay type: cell-based, male Balb/c mice; conditions: for activation at 1 µg/mL: Mus musculus, read-out: Spleen Cells, percent in parentheses (increase over control)
Protocol: The compounds listed below were tested in vitro at various concentrations that ranged from 10 μg/ml cells to 1×10^-6 μg/ml of cell mixtures. Cells were obtained from spleens of male Balb/c mice 6-8 weeks of age. Spleens were pushed through a stainless steel 60 mesh strainer to separate cells.

human mononuclear cells [2] = assay: Proliferation of human mononuclear cells, 3H-methylthymidine (Examples 4 and 9); assay type: cell-based; conditions: 1 to 10 ng/ml cells, 72 hours (Example 9)
Protocol: Cells were further incubated overnight and harvested with a cell harvester.

IL-2 [3] = assay: Oral administration in drinking water, IL-2 content of spleen cell supernatants (Example 13); assay type: in vivo, male Balb-C mice; conditions: 4 days
Protocol: The water solution was prepared by dissolving the compounds in PBS at a concentration of 50 μg/ml PBS and diluting the resulting solution to the desired concentration. The compounds were administered over a 4 day period. The exact amount of liquid intake was recorded daily. […] The cells were incubated at a concentration of 10^7 cells/ml in enriched RPMI containing 2 μg/ml of con-A for 24 hours at 37° C. The supernatants were collected and tested for IL-2 content.

IL-2 receptors = assay: Induction of IL-2 receptors of human mononuclear cells, proliferation with recombinant IL-2 (Example 18); assay type: cell-based
Protocol: Human MNC were brought to a concentration of 10^6 cells/ml. RPMI+10% FCS. Aliquots of 0.2 ml. were placed in duplicate wells of microdishes and plates were incubated at 37° C. for 24 hrs. […] Plates were further incubated for 48 hrs. and labelled with 3H thymidine 24 hrs. before harvesting.
The proliferation was measured by ^3 HT uptake as described by Gillis et al, J. Immunol. […] The results are expressed in counts per minute.

human mononuclear cells [4] = assay: Proliferation of human mononuclear cells (Example 19); assay type: cell-based
Protocol: Human mononuclear cells were obtained by layering heparinized blood over a Ficoll/Hypaque gradient. The mononuclear cells were resuspended in enriched RPMI, rinsed three times and brought to a concentrations of 5×10^5 cells/ml encriched RPMI. […] Aliquots of 0.2 ml of each sample were placed in wells of microplates (triplicates). Microplates were incubated for 72 hours at 37° C. after which they were labelled with H^3 methyl-thymidine 1 μCi/well for an additional 24 hours. Cells were then harvested with a cell harvester.

receptor sites for IL-2 = assay: Detection of IL-2 receptors with fluoresceinated antibody (Example 21); assay type: cell-based, human; conditions: 1 μg/ml, 24 hours
Protocol: This example provides an assay to detect the presence of receptor sites for IL-2. […] The cells were washed twice with PDS and then incubated with a specific fluoresceinated antibody against IL-2 receptors as described in Uchiyama et al, J. Immunol.

T-cell lymphocytes = assay: Lymphokine induction, proliferation and receptor activation in T-cell lymphocytes (statement)
From the text: Thus the invention also contemplates the use alone of TeO2 and tellurium compounds that are active as lymphokine inducers.

[5] = 24 hours, 1 μg/ml of cell mixture
[6] = second part of table, 1 × 10^-1 μg/ml
[7] = second part of table, 1 × 10^-2 μg/ml
[8] = second part of table, 1 × 10^-3 μg/ml
[9] = second part of table, 1 × 10^-4 μg/ml
[10] = second part of table, 5 × 10^-1 μg/ml
[11] = second part of table, 5 × 10^-2 μg/ml

COc1ccc([Te](Cl)(Cl)c2ccc(OC)cc2)cc1 [(pCH3 OPh)2 TeCl2, reference compound]
Spleen Cells (IL-2 activity) (IL-2 [1]; [5]): 2,148 cpm

Cl[Te]1(Cl)OCCO1 [Example 2]
increase of proliferation of human mononuclear cells (human mononuclear cells [2]): 10 fold | IL-2 content (IL-2 [3]; 1 μg/ml H2O): 42500 cpm | Percent increase as compared to control (IL-2 [3]; 1 μg/ml H2O): +30% | IL-2 content (IL-2 [3]; 10 μg/ml H2O): 36815 cpm | IL-2 content (IL-2 [3]; 25 μg/ml H2O): 44500 cpm | Percent increase as compared to control (IL-2 [3]; 25 μg/ml H2O): +35% | Spleen Cells (IL-2 activity) (IL-2 [1]; [5]): 18,000 cpm | activation at 1 µg/mL (IL-2 [1]; [5]): 605% | proliferation (3HT uptake) (IL-2 receptors; Test B, 1 μg/ml): 9315 counts per minute | proliferation (3HT uptake) (IL-2 receptors; Test B, 1 × 10^-2 μg/ml): 6418 counts per minute | proliferation (3HT uptake) (IL-2 receptors; Test B, 1 × 10^-3 μg/ml): 5167 counts per minute | proliferation (3HT uptake) (IL-2 receptors; Test B, 1 × 10^-4 μg/ml): 5372 counts per minute | proliferation (3HT uptake) (IL-2 receptors; Test B, 1 × 10^-5 μg/ml): 6397 counts per minute | proliferation (3HT uptake) (IL-2 receptors; Test B, 5 × 10^-1 μg/ml): 8688 counts per minute | proliferation (3HT uptake) (IL-2 receptors; Test B, 5 × 10^-2 μg/ml): 5538 counts per minute | proliferation (3HT uptake) (IL-2 receptors; Test B, 7 × 10^-1 μg/ml): 5250 counts per minute | proliferation of human mononuclear cells (human mononuclear cells [4]; Ex. 2 table, 1 × 10^-4 μg/ml): 4321 and 2332 | proliferation of human mononuclear cells (human mononuclear cells [4]; Ex. 2 table, 5 × 10^-1 μg/ml): 18415 and 23957 | proliferation of human mononuclear cells (human mononuclear cells [4]; Ex. 2 table, 5 × 10^-2 μg/ml): 5953 and 5532

C1CO[Te]2(O1)OCCO2 [Example 14]
Spleen Cells (IL-2 activity) (IL-2 [1]; [5]): 10,300 cpm | activation at 1 µg/mL (IL-2 [1]; [5]): 304% | proliferation (3HT uptake) (IL-2 receptors; Test B, 1 μg/ml): 2620 counts per minute | proliferation (3HT uptake) (IL-2 receptors; Test B, 1 × 10^-2 μg/ml): 3928 counts per minute | proliferation (3HT uptake) (IL-2 receptors; Test B, 1 × 10^-3 μg/ml): 3007 counts per minute | proliferation (3HT uptake) (IL-2 receptors; Test B, 1 × 10^-4 μg/ml): 2327 counts per minute | proliferation (3HT uptake) (IL-2 receptors; Test B, 1 × 10^-5 μg/ml): 2242 counts per minute | proliferation (3HT uptake) (IL-2 receptors; Test B, 5 × 10^-1 μg/ml): 2402 counts per minute | proliferation (3HT uptake) (IL-2 receptors; Test B, 5 × 10^-2 μg/ml): 3290 counts per minute | proliferation (3HT uptake) (IL-2 receptors; Test B, 7 × 10^-1 μg/ml): 2000 counts per minute

CC1CO[TeH](Cl)(Cl)(Cl)O1 (centres unmarked) [Example 16(a)]
Spleen Cells (IL-2 activity) (IL-2 [1]; [5]): 13,540 cpm | activation at 1 µg/mL (IL-2 [1]; [5]): 435% | proliferation (3HT uptake) (IL-2 receptors; Test A, 1 μg/ml): 21910 counts per minute | proliferation (3HT uptake) (IL-2 receptors; Test A, 1 × 10^-2 μg/ml): 9543 counts per minute | proliferation (3HT uptake) (IL-2 receptors; Test A, 1 × 10^-3 μg/ml): 6685 counts per minute | proliferation (3HT uptake) (IL-2 receptors; Test A, 1 × 10^-4 μg/ml): 6447 counts per minute | proliferation (3HT uptake) (IL-2 receptors; Test A, 1 × 10^-5 μg/ml): 8177 counts per minute | proliferation (3HT uptake) (IL-2 receptors; Test A, 5 × 10^-1 μg/ml): 145208 counts per minute | proliferation (3HT uptake) (IL-2 receptors; Test A, 5 × 10^-2 μg/ml): 8752 counts per minute | proliferation (3HT uptake) (IL-2 receptors; Test A, 7 × 10^-1 μg/ml): 130845 counts per minute | proliferation of human mononuclear cells (human mononuclear cells [4]; second part of table, 1 μg/ml): 4557 | proliferation of human mononuclear cells (human mononuclear cells [4]; second part of table, 5 μg/ml): 4118 | proliferation of human mononuclear cells (human mononuclear cells [4]; [6]): 12435 | proliferation of human mononuclear cells (human mononuclear cells [4]; [7]): 6000 | proliferation of human mononuclear cells (human mononuclear cells [4]; [8]): 6300 | proliferation of human mononuclear cells (human mononuclear cells [4]; [9]): 4587 | proliferation of human mononuclear cells (human mononuclear cells [4]; [10]): 18415 | proliferation of human mononuclear cells (human mononuclear cells [4]; [11]): 5953

CC1O[TeH](Cl)(Cl)(Cl)OC1C (centres unmarked) [Example 16(b)]
Spleen Cells (IL-2 activity) (IL-2 [1]; [5]): 10,650 cpm | activation at 1 µg/mL (IL-2 [1]; [5]): 318% | proliferation (3HT uptake) (IL-2 receptors; Test A, 1 μg/ml): 1018 counts per minute | proliferation (3HT uptake) (IL-2 receptors; Test A, 1 × 10^-2 μg/ml): 5883 counts per minute | proliferation (3HT uptake) (IL-2 receptors; Test A, 1 × 10^-3 μg/ml): 1093 counts per minute | proliferation (3HT uptake) (IL-2 receptors; Test A, 1 × 10^-4 μg/ml): 1138 counts per minute | proliferation (3HT uptake) (IL-2 receptors; Test A, 1 × 10^-5 μg/ml): 2146 counts per minute | proliferation (3HT uptake) (IL-2 receptors; Test A, 5 × 10^-1 μg/ml): 1195 counts per minute | proliferation (3HT uptake) (IL-2 receptors; Test A, 5 × 10^-2 μg/ml): 1602 counts per minute | proliferation (3HT uptake) (IL-2 receptors; Test A, 7 × 10^-1 μg/ml): 2102 counts per minute

Cl[TeH]1(Cl)(Cl)OCCCO1 [Example 16(c)]
Spleen Cells (IL-2 activity) (IL-2 [1]; [5]): 15,720 cpm | activation at 1 µg/mL (IL-2 [1]; [5]): 516%

Cl[TeH]1(Cl)(Cl)OCCCCO1 [Example 16(d)]
Spleen Cells (IL-2 activity) (IL-2 [1]; [5]): 18,075 cpm | activation at 1 µg/mL (IL-2 [1]; [5]): 608%

CC(=O)O[Te](OC(C)=O)(c1ccccc1)c1ccccc1 [Ph2 Te (OCOCH3)2, reference compound]
Spleen Cells (IL-2 activity) (IL-2 [1]; [5]): 3,500 cpm | activity at level tested (footnote *) (IL-2 [1]): no significant activity

O=C(O[Te](OC(=O)c1ccccc1)(c1ccccc1)c1ccccc1)c1ccccc1 [Ph2 Te (OCOPh)2, reference compound]
Spleen Cells (IL-2 activity) (IL-2 [1]; [5]): 4,300 cpm | activity at level tested (footnote *) (IL-2 [1]): no significant activity

Cl[Te](Cl)(c1ccccc1)c1ccccc1 [Ph2 Te Cl2, reference compound]
Spleen Cells (IL-2 activity) (IL-2 [1]; [5]): 2,300 cpm | activity at level tested (footnote *) (IL-2 [1]): no significant activity

Cl[Te](Cl)(Cl)c1ccccc1 [Ph Te Cl3, reference compound]
Spleen Cells (IL-2 activity) (IL-2 [1]; [5]): 18,000 cpm | activation at 1 µg/mL (IL-2 [1]; [5]): 605%

O=[Te]=O [TeO2, Tellurium dioxide, reference compound]
Spleen Cells (IL-2 activity) (IL-2 [1]; [5]): 17,055 cpm | Spleen Cells, percent in parentheses (increase over control) (IL-2 [1]; [5]): +508% | proliferation (3HT uptake) (IL-2 receptors; Test A, 1 μg/ml): 1563 counts per minute | proliferation (3HT uptake) (IL-2 receptors; Test A, 1 × 10^-2 μg/ml): 3108 counts per minute | proliferation (3HT uptake) (IL-2 receptors; Test A, 1 × 10^-3 μg/ml): 2867 counts per minute | proliferation (3HT uptake) (IL-2 receptors; Test A, 1 × 10^-4 μg/ml): 5540 counts per minute | proliferation (3HT uptake) (IL-2 receptors; Test A, 1 × 10^-5 μg/ml): 3442 counts per minute | proliferation (3HT uptake) (IL-2 receptors; Test A, 5 × 10^-1 μg/ml): 4667 counts per minute | proliferation (3HT uptake) (IL-2 receptors; Test A, 5 × 10^-2 μg/ml): 2515 counts per minute | proliferation (3HT uptake) (IL-2 receptors; Test A, 7 × 10^-1 μg/ml): 2475 counts per minute | proliferation (3HT uptake) (IL-2 receptors; Test B, 1 μg/ml): 3275 counts per minute | proliferation (3HT uptake) (IL-2 receptors; Test B, 1 × 10^-2 μg/ml): 3077 counts per minute | proliferation (3HT uptake) (IL-2 receptors; Test B, 1 × 10^-3 μg/ml): 3800 counts per minute | proliferation (3HT uptake) (IL-2 receptors; Test B, 1 × 10^-4 μg/ml): 2925 counts per minute | proliferation (3HT uptake) (IL-2 receptors; Test B, 1 × 10^-5 μg/ml): 3645 counts per minute | proliferation (3HT uptake) (IL-2 receptors; Test B, 5 × 10^-1 μg/ml): 5405 counts per minute | proliferation (3HT uptake) (IL-2 receptors; Test B, 5 × 10^-2 μg/ml): 4280 counts per minute | proliferation (3HT uptake) (IL-2 receptors; Test B, 7 × 10^-1 μg/ml): 4302 counts per minute | effect on proliferation (human mononuclear cells [4]; any concentration that was tested): No significant effect | proliferation of human mononuclear cells (human mononuclear cells [4]; second part of table, 1 μg/ml): 2842 | proliferation of human mononuclear cells (human mononuclear cells [4]; second part of table, 5 μg/ml): 3028 | proliferation of human mononuclear cells (human mononuclear cells [4]; [6]): 4825 | proliferation of human mononuclear cells (human mononuclear cells [4]; [7]): 4730 | proliferation of human mononuclear cells (human mononuclear cells [4]; [8]): 6168 | proliferation of human mononuclear cells (human mononuclear cells [4]; [9]): 5331 | proliferation of human mononuclear cells (human mononuclear cells [4]; [10]): 4773 | proliferation of human mononuclear cells (human mononuclear cells [4]; [11]): 5802 | cells positive for IL-2 receptors (receptor sites for IL-2): 5% | activation of the receptor site in responder T-cell lymphocytes (T-cell lymphocytes): will not cause proliferation of IL-2 producer cells or activate the receptor site | proliferation of IL-2 producer cells (T-cell lymphocytes): will not cause proliferation of IL-2 producer cells | lymphokine production in producer T-cell lymphocytes (T-cell lymphocytes; in vitro and in vivo): will induce lymphokine production
